Patent US20250361230A1, “LATS Inhibitors and Uses Thereof” (The USA, as Represented by the Secretary, Dept. of Heath …, priority 2022, published 2025)
pIC50: −log10 of the molar value. Read-outs that look alike come from different tables or passages of the source.

How the values were obtained:
Format in all cases: biochemical
LATS1 = biological target: T1, LATS1 (Homo sapiens, UniProt O95835); assay: RBC HotSpot kinase assay (33P-ATP, P81 filter-binding), LATS1; settings: read-out: LATS1 IC50
T1 sequence (O95835 1-1130): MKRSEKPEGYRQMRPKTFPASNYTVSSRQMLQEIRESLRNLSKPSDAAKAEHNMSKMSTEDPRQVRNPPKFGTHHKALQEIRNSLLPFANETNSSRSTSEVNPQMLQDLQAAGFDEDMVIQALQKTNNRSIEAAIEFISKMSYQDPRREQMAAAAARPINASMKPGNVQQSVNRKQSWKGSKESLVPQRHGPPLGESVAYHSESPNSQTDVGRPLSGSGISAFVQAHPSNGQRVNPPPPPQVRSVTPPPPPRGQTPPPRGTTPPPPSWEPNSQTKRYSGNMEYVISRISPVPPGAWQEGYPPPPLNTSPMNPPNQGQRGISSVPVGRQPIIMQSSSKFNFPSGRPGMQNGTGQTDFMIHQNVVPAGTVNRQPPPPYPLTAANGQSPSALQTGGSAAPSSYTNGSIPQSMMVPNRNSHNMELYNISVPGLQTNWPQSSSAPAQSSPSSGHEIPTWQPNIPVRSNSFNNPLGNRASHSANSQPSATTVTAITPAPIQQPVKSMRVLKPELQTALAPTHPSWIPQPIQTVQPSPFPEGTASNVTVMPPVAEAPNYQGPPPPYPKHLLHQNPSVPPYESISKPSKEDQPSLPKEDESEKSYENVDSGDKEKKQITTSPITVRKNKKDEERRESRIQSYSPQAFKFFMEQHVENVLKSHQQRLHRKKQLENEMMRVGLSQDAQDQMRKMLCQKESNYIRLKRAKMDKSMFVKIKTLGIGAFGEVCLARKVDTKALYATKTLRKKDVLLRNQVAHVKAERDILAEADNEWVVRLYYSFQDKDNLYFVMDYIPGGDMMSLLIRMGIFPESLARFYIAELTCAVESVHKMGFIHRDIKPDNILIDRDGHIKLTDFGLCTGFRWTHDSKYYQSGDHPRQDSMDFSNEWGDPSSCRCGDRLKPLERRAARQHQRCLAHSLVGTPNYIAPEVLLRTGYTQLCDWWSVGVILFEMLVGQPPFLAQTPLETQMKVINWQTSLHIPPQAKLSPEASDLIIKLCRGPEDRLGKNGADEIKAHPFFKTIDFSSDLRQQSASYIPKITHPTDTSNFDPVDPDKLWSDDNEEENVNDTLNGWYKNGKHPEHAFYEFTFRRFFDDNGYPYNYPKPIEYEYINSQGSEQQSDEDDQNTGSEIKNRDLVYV
In short: (§1)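 Hepes pH 7.5/MgCl2/EGTA/Brij35/BSA/Na3VO4/DTT buffer, cofactors per kinase; cpd acoustically dispensed, 20 min preinc RT; start w/ 33P-ATP, 2 h RT; P81 filter readout; 10-pt singlet IC50.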

LATS2 = biological target: T2, LATS2 (Homo sapiens, UniProt Q9NRM7); assay: RBC HotSpot kinase assay (33P-ATP, P81 filter-binding), LATS2; settings: read-out: LATS2 IC50
T2 sequence (Q9NRM7 1-1088): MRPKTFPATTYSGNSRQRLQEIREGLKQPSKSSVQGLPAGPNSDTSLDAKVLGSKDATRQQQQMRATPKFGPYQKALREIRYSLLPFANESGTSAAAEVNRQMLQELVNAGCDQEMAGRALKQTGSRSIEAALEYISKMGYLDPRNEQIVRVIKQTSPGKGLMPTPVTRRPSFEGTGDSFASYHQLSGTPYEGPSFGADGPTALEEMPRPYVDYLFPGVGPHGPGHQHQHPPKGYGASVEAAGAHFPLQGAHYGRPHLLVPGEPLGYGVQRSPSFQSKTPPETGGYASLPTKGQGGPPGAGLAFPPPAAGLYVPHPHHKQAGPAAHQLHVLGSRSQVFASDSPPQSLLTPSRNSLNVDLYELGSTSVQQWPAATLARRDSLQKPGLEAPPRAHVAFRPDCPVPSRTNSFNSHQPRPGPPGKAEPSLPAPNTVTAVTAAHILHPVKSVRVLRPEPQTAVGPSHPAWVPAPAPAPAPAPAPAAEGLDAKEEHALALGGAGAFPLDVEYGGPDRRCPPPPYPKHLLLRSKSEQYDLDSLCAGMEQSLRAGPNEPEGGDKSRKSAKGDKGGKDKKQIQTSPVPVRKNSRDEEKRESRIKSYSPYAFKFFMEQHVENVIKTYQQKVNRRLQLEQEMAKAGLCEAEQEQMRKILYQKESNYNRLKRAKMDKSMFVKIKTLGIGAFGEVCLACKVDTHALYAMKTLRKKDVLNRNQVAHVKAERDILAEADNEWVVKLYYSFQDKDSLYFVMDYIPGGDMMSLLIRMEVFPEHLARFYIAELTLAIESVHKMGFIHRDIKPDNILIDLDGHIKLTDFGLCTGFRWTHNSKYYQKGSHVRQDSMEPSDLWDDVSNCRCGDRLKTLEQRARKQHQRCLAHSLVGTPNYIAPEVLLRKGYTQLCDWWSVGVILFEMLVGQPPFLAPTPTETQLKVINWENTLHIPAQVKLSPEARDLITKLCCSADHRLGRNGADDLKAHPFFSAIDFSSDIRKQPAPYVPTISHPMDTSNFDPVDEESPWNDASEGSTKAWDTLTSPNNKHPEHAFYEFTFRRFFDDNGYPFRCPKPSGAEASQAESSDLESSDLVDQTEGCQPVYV
In short: as §1

AKT = AKT (Homo sapiens, UniProt P31749); assay: RBC HotSpot kinase assay (33P-ATP, P81 filter-binding), AKT; settings: read-out: AKT IC50
In short: as §1

[1] = Table 28, biochemical kinase assay
[2] = Table 32, biochemical kinase assay

AKT, sequence (P31749 whole entry): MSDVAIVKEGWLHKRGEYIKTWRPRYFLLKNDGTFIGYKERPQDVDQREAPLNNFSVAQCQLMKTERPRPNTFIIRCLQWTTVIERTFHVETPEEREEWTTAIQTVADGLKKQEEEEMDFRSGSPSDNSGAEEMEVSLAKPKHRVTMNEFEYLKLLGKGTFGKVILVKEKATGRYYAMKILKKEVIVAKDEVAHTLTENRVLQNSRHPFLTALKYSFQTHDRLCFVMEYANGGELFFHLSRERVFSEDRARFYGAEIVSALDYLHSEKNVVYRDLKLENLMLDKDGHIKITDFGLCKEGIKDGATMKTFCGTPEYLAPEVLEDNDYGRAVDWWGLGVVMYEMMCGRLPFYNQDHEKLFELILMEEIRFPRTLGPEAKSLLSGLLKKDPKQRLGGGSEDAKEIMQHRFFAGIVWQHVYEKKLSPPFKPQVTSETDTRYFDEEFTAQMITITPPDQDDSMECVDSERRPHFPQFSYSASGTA

Structure (SMILES) | pIC50 (LATS1; [1]) | pIC50 (LATS2; [1]) | pIC50 (AKT; [1]) | other results
NCc1ccc(-c2ccnc3[nH]cc(-c4cccc(F)c4)c23)cc1 [Compound 247, (4-(3-(3-fluorophenyl)-1H-pyrrolo[2,3-b]pyridin-4-yl)phenyl) methanamine] | 7.68 | 7.96 | 5.85 | 
Cc1cc(-c2ccnc3[nH]cc(F)c23)cc(F)c1[C@@]1(O)[C@H](C)CN(C(=O)[C@@H]2COCCN2)C[C@@H]1C [Compound 68, ((3S,4R,5R)-4-(2-fluoro-4-(3-fluoro-1H-pyrrolo[2,3-b]pyridin-4-yl)-6-methylphenyl)-4-hydroxy-3,5-dimethylpiperidin-1-yl)((S)-morpholin-3-yl)methanone] | 7.86 | 8.18 | 5.78 | 
COc1cc(-c2ccnc3[nH]cc(F)c23)ncc1[C@@]1(O)[C@H](C)CNC[C@@H]1C [Compound 4, (3R,4s,5S)-4-(6-(3-fluoro-1H-pyrrolo[2,3-b]pyridin-4-yl)-4-methoxypyridin-3-yl)-3,5-dimethylpiperidin-4-ol] | 7.74 | 7.25 | 5.38 | 
CC(C)(C)Nc1cc(-c2ccnc3[nH]ccc23)ccc1CN [Compound 203, 2-(aminomethyl)-N-(tert-butyl)-5-(1H-pyrrolo[2,3-b]pyridin-4-yl)aniline] | 7.15 | 6.87 | 5.86 | 
C[C@@H]1CN(C(=O)[C@@H](C)N)C[C@H](C)C1(O)c1c(F)cc(-c2ccnc3[nH]cc(F)c23)cc1F (stereo partly drawn) [Compound 86, (2R)-2-amino-1-((3S,5R)-4-(2,6-difluoro-4-(3-fluoro-1H-pyrrolo[2,3-b]pyridin-4-yl)phenyl)-4-hydroxy-3,5-dimethylpiperidin-1-yl)propan-1-one] | 7.69 | 8.19 | 6.16 | 
C[C@H](N)C(=O)N1C[C@@H](C)C(O)(c2c(F)cc(-c3ccnc4[nH]cc(F)c34)cc2F)[C@@H](C)C1 (stereo partly drawn) [Compound 82, (2S)-2-amino-1-((3S,5R)-4-(2,6-difluoro-4-(3-fluoro-1H-pyrrolo[2,3-b]pyridin-4-yl)phenyl)-4-hydroxy-3,5-dimethylpiperidin-1-yl)propan-1-one] | 7.84 | 7.85 | 6.30 | 
Cc1cc(-c2ccnc3[nH]cc(F)c23)cc(F)c1[C@@]1(O)[C@H](C)CN(C2CCNCC2)C[C@@H]1C [Compound 91, (3S,4s,5R)-4-(2-fluoro-4-(3-fluoro-1H-pyrrolo[2,3-b]pyridin-4-yl)-6-methylphenyl)-3,5-dimethyl-[1,4′-bipiperidin]-4-ol] | 8.10 | 8.38 | 6.75 | 
C[C@@H]1CN(C(=O)[C@@H]2COCCN2)C[C@H](C)C1(O)c1c(F)cc(-c2ccnc3[nH]cc(F)c23)cc1F (stereo partly drawn) [Compound 81, ((3S,5R)-4-(2,6-difluoro-4-(3-fluoro-1H-pyrrolo[2,3-b]pyridin-4-yl)phenyl)-4-hydroxy-3,5-dimethylpiperidin-1-yl)((S)-morpholin-3-yl)methanone] | 7.62 | 7.65 | 5.99 | 
COC(=O)c1c[nH]c2nccc(-c3ccc(C(C)(C)N)cc3)c12 [Compound 212, methyl 4-(4-(2-aminopropan-2-yl)phenyl)-1H-pyrrolo[2,3-b]pyridine-3-carboxylate] | 7.92 | 7.89 | 5.90 | 
Cc1cc(-c2ccnc3[nH]cc(C#N)c23)cc(F)c1[C@@]1(O)[C@H](C)CN(C(=O)C(C)(C)N)C[C@@H]1C [Compound 2018, 4-(4-((3S,4s,5R)-1-(2-amino-2-methylpropanoyl)-4-hydroxy-3,5-dimethylpiperidin-4-yl)-3-fluoro-5-methylphenyl)-1H-pyrrolo[2,3-b]pyridine-3-carbonitrile] |  |  |  | pIC50 (LATS1; biochemical kinase inhibition): 7.95; pIC50 (LATS2; biochemical kinase inhibition): 8.14; pIC50 (AKT; biochemical kinase inhibition): 6.21
O=C(NCC(O)(c1ccc(Cl)cc1)c1ccc(-c2ccnc3[nH]ccc23)cc1)[C@@H]1CCCN1 (stereo partly drawn) [Compound 1023, (2S)—N-(2-(4-(1H-pyrrolo[2,3-b]pyridin-4-yl)phenyl)-2-(4-chlorophenyl)-2-hydroxyethyl)pyrrolidine-2-carboxamide] |  |  |  | pIC50 (LATS1; [2]): 8.47; pIC50 (LATS2; [2]): 8.34; pIC50 (AKT; [2]): 8.04
COC(=O)c1c[nH]c2nccc(-c3ccc(CN)c(Cl)c3)c12 [Compound 216, methyl 4-(4-(aminomethyl)-3-chlorophenyl)-1H-pyrrolo[2,3-b]pyridine-3-carboxylate] | 7.96 | 7.72 | 6.08 | 
C[C@@H]1CN(C2CCS(=O)(=O)CC2)C[C@H](C)[C@@]1(O)c1ccc(-c2ccnc3[nH]cc(F)c23)cc1Cl [Compound 26, 4-((3S,4s,5R)-4-(2-chloro-4-(3-fluoro-1H-pyrrolo[2,3-b]pyridin-4-yl)phenyl)-4-hydroxy-3,5-dimethylpiperidin-1-yl)tetrahydro-2H-thiopyran 1,1-dioxide] | 9.14 | 9.29 | 7.73 | 
NCC(O)(c1ccc(Cl)cc1)c1ccc(-c2ccnc3[nH]cc(Cl)c23)nc1 (stereo not drawn) [Compound 1010, 2-amino-1-(6-(3-chloro-1H-pyrrolo[2,3-b]pyridin-4-yl)pyridin-3-yl)-1-(4-chlorophenyl)ethan-1-ol] |  |  |  | pIC50 (LATS1; [2]): 9.30; pIC50 (LATS2; [2]): > 9.30; pIC50 (AKT; [2]): > 9.30
CCN(CC)c1cc(-c2ccnc3[nH]ccc23)ccc1CN [Compound 237, 2-(aminomethyl)-N,N-diethyl-5-(1H-pyrrolo[2,3-b]pyridin-4-yl)aniline] | 7.92 | 7.64 | 7.00 | 
C[C@@H]1CN(C)C[C@H](C)[C@@]1(O)c1ccc(-c2ccnc3[nH]cc(F)c23)cc1Cl [Compound 5, (3S,4s,5R)-4-(2-chloro-4-(3-fluoro-1H-pyrrolo[2,3-b]pyridin-4-yl)phenyl)-1,3,5-trimethylpiperidin-4-ol] | 8.04 | 7.90 | 7.17 | 
CC(=O)N1C[C@@H](C)[C@](O)(c2c(F)cc(-c3ccnc4[nH]cc(F)c34)cc2F)[C@@H](C)C1 [Compound 94, 1-((3S,4s,5R)-4-(2,6-difluoro-4-(3-fluoro-1H-pyrrolo[2,3-b]pyridin-4-yl)phenyl)-4-hydroxy-3,5-dimethylpiperidin-1-yl)ethan-1-one] | 7.75 | 7.53 | 5.32 | 
